pIC50: −log10 of the molar value. Where a name gives a salt, the structure may show the parent alone.
Target: T1, IgE-Tb / soluble IgE receptor FcεRIα with a Y131A mutation (Homo sapiens, UniProt P01854, N146Q/N252Q)
T1 construct: fused on or other part: Terbium chelate (LanthaScreen amine-reactive) on IgE-Fc; Alexa Fluor 488 hydrazide on the oxidised glycans of sFcεRIα; Both are labels and no part of the key
Assay: in vitro FRET assay: binding of IgE-Tb to receptor FcεRIα-Y131A-AF488 and its inhibition by compounds
Details: 5 nM IgE-Tb, 25 nM FcεRIα-Y131A-AF488, 2 hours at room temperature; read-out: FRET IC50 range

T1 sequence (P01854 104-427 N146Q/N252Q): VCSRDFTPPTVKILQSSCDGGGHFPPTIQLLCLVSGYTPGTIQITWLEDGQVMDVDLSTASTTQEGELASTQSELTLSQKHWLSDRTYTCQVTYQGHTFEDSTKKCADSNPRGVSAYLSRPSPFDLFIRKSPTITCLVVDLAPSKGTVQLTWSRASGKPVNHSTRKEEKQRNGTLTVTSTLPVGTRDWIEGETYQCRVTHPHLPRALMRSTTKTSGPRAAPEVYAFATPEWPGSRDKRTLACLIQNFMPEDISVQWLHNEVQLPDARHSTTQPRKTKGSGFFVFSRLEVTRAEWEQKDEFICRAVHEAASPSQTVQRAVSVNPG
T1 sequence (P12319 26-201 Y156A partner): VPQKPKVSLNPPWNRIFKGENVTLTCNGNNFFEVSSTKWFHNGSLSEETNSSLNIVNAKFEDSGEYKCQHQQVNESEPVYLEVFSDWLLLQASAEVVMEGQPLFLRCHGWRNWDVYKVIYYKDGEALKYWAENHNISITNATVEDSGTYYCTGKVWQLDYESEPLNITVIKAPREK

**Q.** `CC(C)(F)CNS(=O)(=O)c1c2c(cc3cnc(C4CC4)cc13)CC(Nc1cncc3[nH]cnc13)C2` (stereo not drawn) [Example 62, 3-cyclopropyl-N-(2-fluoro-2-methylpropyl)-7-(3H-imidazo[4,5-c]pyridin-7-ylamino)-7,8-dihydro-6H-cyclopenta[g]isoquinoline-5-sulfonamide] was tested. Which pIC50 did it give?
**A.** 7.30 to 8.00

**Q.** `CC(C)(F)CNS(=O)(=O)c1c2c(cc3cnc(C4CC4)cc13)CC(Nc1cc[nH]c(=O)c1)C2` (stereo not drawn) [Example 63, 3-cyclopropyl-N-(2-fluoro-2-methylpropyl)-7-[(2-oxo-1H-pyridin-4-yl)amino]-7,8-dihydro-6H-cyclopenta[g]isoquinoline-5-sulfonamide] was tested. Which pIC50 did it give?
**A.** 7.30 to 8.00

**Q.** `CCOC(=O)c1nnc(N[C@@H]2Cc3cc4cnc(C5CC5)cc4c(S(=O)(=O)NCC(C)(C)F)c3C2)s1` [Example 64, ethyl 5-[[(7R)-3-cyclopropyl-5-[(2-fluoro-2-methylpropyl)sulfamoyl]-7,8-dihydro-6H-cyclopenta[g]isoquinolin-7-yl]amino]-1,3,4-thiadiazole-2-carboxylate] was tested. Which pIC50 did it give?
**A.** 7.30 to 8.00

**Q.** How did the pIC50 turn out when `CC(C)(F)CNS(=O)(=O)c1c2c(cc3nnc(C4CC4)cc13)CC(NC(=O)OC(C)(C)C)C2` (stereo not drawn) [Example 65, tert-butyl N-[3-cyclopropyl-5-[(2-fluoro-2-methylpropyl)sulfamoyl]-7,8-dihydro-6H-cyclopenta[g]cinnolin-7-yl]carbamate] was run?
**A.** 5.70 to 7.00

**Q.** How did the pIC50 turn out when `Cc1nnc(-c2ccc(NC3Cc4cc5nnc(C6CC6)cc5c(S(=O)(=O)NCC(C)(C)F)c4C3)cn2)o1` (stereo not drawn) [Example 66, 3-cyclopropyl-N-(2-fluoro-2-methylpropyl)-7-[[6-(5-methyl-1,3,4-oxadiazol-2-yl)pyridin-3-yl]amino]-7,8-dihydro-6H-cyclopenta[g]cinnoline-5-sulfonamide] was run?
**A.** 7.30 to 8.00

**Q.** How did the pIC50 turn out when `Cc1nc(C2CC2)cc2c(S(=O)(=O)NCC(C)C)c3c(cc12)CCC3` [Example 67, 3-cyclopropyl-1-methyl-N-(2-methylpropyl)-7,8-dihydro-6H-cyclopenta[g]isoquinoline-5-sulfonamide] was run?
**A.** 5.70 to 7.00

**Q.** How did the pIC50 turn out when `CC(C)CNS(=O)(=O)c1c2c(cc3cnc(C4CC4)cc13)OCO2` [Example 68, 7-cyclopropyl-N-(2-methylpropyl)-[1,3]dioxolo[4,5-g]isoquinoline-9-sulfonamide] was run?
**A.** 5.70 to 7.00

**Q.** `CC(C)CNS(=O)(=O)c1c2c(cc3cnc(C4CC4)cc13)CCC2` [Example 69, 3-cyclopropyl-N-isobutyl-7,8-dihydro-6H-cyclopenta[g]isoquinoline-5-sulfonamide] was tested. Which pIC50 did it give?
**A.** 7.00 to 7.30

**Q.** `Cc1nnc(-c2ccc(N[C@@H]3Cc4cc5cnc(C6CC6)cc5c(S(=O)(=O)NCC(C)(C)F)c4C3)cc2)o1` [Example 70, (7R)-3-cyclopropyl-N-(2-fluoro-2-methylpropyl)-7-[4-(5-methyl-1,3,4-oxadiazol-2-yl)anilino]-7,8-dihydro-6H-cyclopenta[g]isoquinoline-5-sulfonamide] was tested. Which pIC50 did it give?
**A.** 7.30 to 8.00

**Q.** How did the pIC50 turn out when `CC(C)(F)CNS(=O)(=O)c1c2c(cc3cnc(C4CC4)cc13)CC(c1nc3c(=O)[nH]ccc3[nH]1)C2` (stereo not drawn) [Example 71, 3-cyclopropyl-N-(2-fluoro-2-methylpropyl)-7-(4-oxo-1,5-dihydroimidazo[4,5-c]pyridin-2-yl)-7,8-dihydro-6H-cyclopenta[g]isoquinoline-5-sulfonamide] was run?
**A.** 7.00 to 7.30

**Q.** How did the pIC50 turn out when `CC(C)(F)CNS(=O)(=O)c1c2c(cc3cnc(C4CC4)cc13)CN(C(=O)Cc1cccnc1)C2` [Example 72, 7-cyclopropyl-N-(2-fluoro-2-methylpropyl)-2-(2-pyridin-3-ylacetyl)-1,3-dihydropyrrolo[3,4-g]isoquinoline-9-sulfonamide] was run?
**A.** 5.70 to 7.00

**Q.** How did the pIC50 turn out when `CC(C)(F)CNS(=O)(=O)c1c2c(cc3cnc(C4CC4)cc13)C[C@@H](Nc1ccc(F)nc1)C2` [Example 73, (7R)-3-cyclopropyl-N-(2-fluoro-2-methylpropyl)-7-[(6-fluoropyridin-3-yl)amino]-7,8-dihydro-6H-cyclopenta[g]isoquinoline-5-sulfonamide] was run?
**A.** 7.30 to 8.00

**Q.** `O=S(=O)(NC1CC(F)(F)C1)c1c2c(cc3cnc(C4CC4)cc13)CC(Nc1ccc(C3(O)COC3)nc1)C2` (stereo not drawn) [Example 74, 3-cyclopropyl-N-(3,3-difluorocyclobutyl)-7-[[6-(3-hydroxyoxetan-3-yl)pyridin-3-yl]amino]-7,8-dihydro-6H-cyclopenta[g]isoquinoline-5-sulfonamide] was tested. Which pIC50 did it give?
**A.** 7.30 to 8.00

**Q.** With `CC(C)(F)CNS(=O)(=O)c1c2c(cc3cnc(C4CC4)cc13)C[C@@H](Nc1cncc(Oc3cc[nH]c(=O)c3)c1)C2` [Example 75, (7R)-3-cyclopropyl-N-(2-fluoro-2-methylpropyl)-7-[[5-[(2-oxo-1H-pyridin-4-yl)oxy]pyridin-3-yl]amino]-7,8-dihydro-6H-cyclopenta[g]isoquinoline-5-sulfonamide] as the compound, how does the pIC50 read?
**A.** 7.30 to 8.00

**Q.** `CC(C)NC(=O)c1ccc(N[C@@H]2Cc3cc4cnc(C5CC5)cc4c(S(=O)(=O)NCC(C)(C)F)c3C2)cn1` [Example 77, 5-[[(7R)-3-cyclopropyl-5-[(2-fluoro-2-methylpropyl)sulfamoyl]-7,8-dihydro-6H-cyclopenta[g]isoquinolin-7-yl]amino]-N-propan-2-ylpyridine-2-carboxamide] was tested. Which pIC50 did it give?
**A.** 7.30 to 8.00

**Q.** `Cc1ncccc1-n1cnnc1NC1Cc2cc3cnc(C4CC4)cc3c(S(=O)(=O)NCC(C)(C)F)c2C1` (stereo not drawn) [Example 78, 3-cyclopropyl-N-(2-fluoro-2-methylpropyl)-7-[[4-(2-methylpyridin-3-yl)-1,2,4-triazol-3-yl]amino]-7,8-dihydro-6H-cyclopenta[g]isoquinoline-5-sulfonamide] was tested. Which pIC50 did it give?
**A.** 5.70 to 7.00

**Q.** `CC(C)(F)CNS(=O)(=O)c1c2c(cc3cnc(C4CC4)cc13)CC(c1ccno1)C2` (stereo not drawn) [Example 79, 3-cyclopropyl-N-(2-fluoro-2-methylpropyl)-7-(1,2-oxazol-5-yl)-7,8-dihydro-6H-cyclopenta[g]isoquinoline-5-sulfonamide] was tested. Which pIC50 did it give?
**A.** 5.70 to 7.00

**Q.** How did the pIC50 turn out when `Cc1ccc(NC2Cc3cc4cnc(C5CC5)cc4c(S(=O)(=O)NCC(C)(C)O)c3C2)nn1` (stereo not drawn) [Example 80, 3-cyclopropyl-N-(2-hydroxy-2-methylpropyl)-7-[(6-methylpyridazin-3-yl)amino]-7,8-dihydro-6H-cyclopenta[g]isoquinoline-5-sulfonamide] was run?
**A.** 5.70 to 7.00

**Q.** With `CC1(C)CC1NS(=O)(=O)c1c2c(cc3cnc(C4CC4)cc13)CC(C(=O)Nc1cccnc1)C2` (stereo not drawn) [Example 81, 3-cyclopropyl-5-[(2,2-dimethylcyclopropyl)sulfamoyl]-N-pyridin-3-yl-7,8-dihydro-6H-cyclopenta[g]isoquinoline-7-carboxamide] as the compound, how does the pIC50 read?
**A.** 5.70 to 7.00

**Q.** With `CC(C)(F)CNS(=O)(=O)c1c2c(cc3cnc(C4CC4)cc13)CC(Nc1cncc3[nH]ncc13)C2` (stereo not drawn) [Example 83, 3-cyclopropyl-N-(2-fluoro-2-methyl-propyl)-7-(1H-pyrazolo[3,4-c]pyridin-4-ylamino)-7,8-dihydro-6H-cyclopenta[g]isoquinoline-5-sulfonamide, formate salt] as the compound, how does the pIC50 read?
**A.** 7.30 to 8.00

**Q.** `Cn1ncc2c(NC3Cc4cc5cnc(C6CC6)cc5c(S(=O)(=O)NCC(C)(C)F)c4C3)cncc21` (stereo not drawn) [Example 84, 3-cyclopropyl-N-(2-fluoro-2-methylpropyl)-7-[(1-methylpyrazolo[3,4-c]pyridin-4-yl)amino]-7,8-dihydro-6H-cyclopenta[g]isoquinoline-5-sulfonamide] was tested. Which pIC50 did it give?
**A.** 7.30 to 8.00

— patent US12577228B2, “Dihydrocyclopenta-isoquinoline-sulfonamide derivatives compounds” (UCB Biopharma SRL, priority 2019, dated 2026)
